The source made the active and inactive calls.

The subject of data set [1] is Vero. The experiment in a line: cells. To be noted: Chlorocebus sabaeus. The data set is classed as functional, cell-based.
The test system of data set [2] is Vero. Description: cells. The conditions noted are these: Chlorocebus sabaeus. The class given is functional.
The next data set concerns HEK293. The experiment in a line: cells. The class given is functional, cell-based. To be noted: Homo sapiens.
The target in data set [3] is T1, Nuclear receptor subfamily 0 group B member 1 (Homo sapiens, UniProt P51843).
T1 sequence (P51843 whole entry): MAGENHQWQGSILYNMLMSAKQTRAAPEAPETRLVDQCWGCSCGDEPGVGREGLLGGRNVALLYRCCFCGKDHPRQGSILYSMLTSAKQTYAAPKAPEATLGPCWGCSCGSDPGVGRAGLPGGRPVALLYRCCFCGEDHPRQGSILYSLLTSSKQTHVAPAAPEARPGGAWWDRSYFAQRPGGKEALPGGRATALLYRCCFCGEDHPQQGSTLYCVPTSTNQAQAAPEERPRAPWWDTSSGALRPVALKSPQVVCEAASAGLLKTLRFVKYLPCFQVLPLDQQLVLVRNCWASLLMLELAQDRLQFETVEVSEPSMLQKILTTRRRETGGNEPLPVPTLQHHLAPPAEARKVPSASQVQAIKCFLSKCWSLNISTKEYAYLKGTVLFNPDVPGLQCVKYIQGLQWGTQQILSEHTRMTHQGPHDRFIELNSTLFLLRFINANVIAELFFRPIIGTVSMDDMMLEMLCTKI
Description: Luminescence-based cell-based high throughput dose response assay for inhibitors of the orphan nuclear receptor subfamily 0, group B, member 1 (DAX1; NR0B1). [Related pubchem assays (depositor defined):AID504766, AID504790]. The data set is classed as functional.

The target of the next data set is T2, Caspase-3 (Homo sapiens, UniProt P42574).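 Also: Dose-response selectivity test against caspase-3 for candidate inhibitors of sentrin-specific proteases (SENPs).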
T2 sequence (P42574 whole entry): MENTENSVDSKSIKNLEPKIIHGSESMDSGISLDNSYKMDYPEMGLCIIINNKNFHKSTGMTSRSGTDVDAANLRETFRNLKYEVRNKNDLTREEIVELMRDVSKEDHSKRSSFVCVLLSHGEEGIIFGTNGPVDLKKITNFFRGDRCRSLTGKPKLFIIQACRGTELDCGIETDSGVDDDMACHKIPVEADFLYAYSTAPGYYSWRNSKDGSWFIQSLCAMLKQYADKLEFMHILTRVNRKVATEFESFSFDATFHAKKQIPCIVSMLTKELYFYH
The class given is functional.

For data set [4], the target named is T3, Sentrin-specific protease 7 (Homo sapiens, UniProt Q9BQF6).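 Also: Luminescence-based dose-response confirmation of ultra-high-throughput screening hits, measuring inhibition of SENP7.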
T3 sequence (Q9BQF6 whole entry): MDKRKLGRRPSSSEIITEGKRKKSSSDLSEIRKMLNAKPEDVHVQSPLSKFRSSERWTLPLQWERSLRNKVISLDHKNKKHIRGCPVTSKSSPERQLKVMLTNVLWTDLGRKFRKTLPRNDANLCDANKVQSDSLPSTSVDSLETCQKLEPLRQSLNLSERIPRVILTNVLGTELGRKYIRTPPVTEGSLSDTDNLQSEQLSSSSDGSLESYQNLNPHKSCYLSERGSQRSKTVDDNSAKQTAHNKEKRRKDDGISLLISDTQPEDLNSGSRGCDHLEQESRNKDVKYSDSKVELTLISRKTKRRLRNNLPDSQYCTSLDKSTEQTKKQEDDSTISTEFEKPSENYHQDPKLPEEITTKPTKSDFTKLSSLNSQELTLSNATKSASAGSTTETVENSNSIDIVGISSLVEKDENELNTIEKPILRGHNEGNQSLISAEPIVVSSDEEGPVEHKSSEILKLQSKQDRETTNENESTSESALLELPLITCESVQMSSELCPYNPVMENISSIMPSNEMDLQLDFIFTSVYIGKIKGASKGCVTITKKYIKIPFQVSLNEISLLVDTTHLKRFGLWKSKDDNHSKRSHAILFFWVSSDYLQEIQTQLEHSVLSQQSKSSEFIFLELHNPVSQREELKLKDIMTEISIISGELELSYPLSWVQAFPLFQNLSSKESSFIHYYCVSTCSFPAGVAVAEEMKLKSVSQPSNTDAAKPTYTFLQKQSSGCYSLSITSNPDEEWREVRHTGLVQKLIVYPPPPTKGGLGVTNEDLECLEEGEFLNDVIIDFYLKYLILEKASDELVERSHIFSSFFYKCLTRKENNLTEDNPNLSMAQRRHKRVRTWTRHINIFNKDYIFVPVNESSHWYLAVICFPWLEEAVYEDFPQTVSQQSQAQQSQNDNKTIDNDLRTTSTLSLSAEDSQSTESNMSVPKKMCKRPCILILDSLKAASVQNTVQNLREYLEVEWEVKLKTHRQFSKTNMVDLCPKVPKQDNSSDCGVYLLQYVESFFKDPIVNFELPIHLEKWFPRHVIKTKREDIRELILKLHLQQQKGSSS
The class given is functional.

The target of data set [5] is T4, Sentrin-specific protease 6 (Homo sapiens, UniProt Q9GZR1).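 Also: Luminescence-based dose-response confirmatory assay of SENP6 inhibition, following up an ultra-high-throughput screen.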
T4 sequence (Q9GZR1 whole entry): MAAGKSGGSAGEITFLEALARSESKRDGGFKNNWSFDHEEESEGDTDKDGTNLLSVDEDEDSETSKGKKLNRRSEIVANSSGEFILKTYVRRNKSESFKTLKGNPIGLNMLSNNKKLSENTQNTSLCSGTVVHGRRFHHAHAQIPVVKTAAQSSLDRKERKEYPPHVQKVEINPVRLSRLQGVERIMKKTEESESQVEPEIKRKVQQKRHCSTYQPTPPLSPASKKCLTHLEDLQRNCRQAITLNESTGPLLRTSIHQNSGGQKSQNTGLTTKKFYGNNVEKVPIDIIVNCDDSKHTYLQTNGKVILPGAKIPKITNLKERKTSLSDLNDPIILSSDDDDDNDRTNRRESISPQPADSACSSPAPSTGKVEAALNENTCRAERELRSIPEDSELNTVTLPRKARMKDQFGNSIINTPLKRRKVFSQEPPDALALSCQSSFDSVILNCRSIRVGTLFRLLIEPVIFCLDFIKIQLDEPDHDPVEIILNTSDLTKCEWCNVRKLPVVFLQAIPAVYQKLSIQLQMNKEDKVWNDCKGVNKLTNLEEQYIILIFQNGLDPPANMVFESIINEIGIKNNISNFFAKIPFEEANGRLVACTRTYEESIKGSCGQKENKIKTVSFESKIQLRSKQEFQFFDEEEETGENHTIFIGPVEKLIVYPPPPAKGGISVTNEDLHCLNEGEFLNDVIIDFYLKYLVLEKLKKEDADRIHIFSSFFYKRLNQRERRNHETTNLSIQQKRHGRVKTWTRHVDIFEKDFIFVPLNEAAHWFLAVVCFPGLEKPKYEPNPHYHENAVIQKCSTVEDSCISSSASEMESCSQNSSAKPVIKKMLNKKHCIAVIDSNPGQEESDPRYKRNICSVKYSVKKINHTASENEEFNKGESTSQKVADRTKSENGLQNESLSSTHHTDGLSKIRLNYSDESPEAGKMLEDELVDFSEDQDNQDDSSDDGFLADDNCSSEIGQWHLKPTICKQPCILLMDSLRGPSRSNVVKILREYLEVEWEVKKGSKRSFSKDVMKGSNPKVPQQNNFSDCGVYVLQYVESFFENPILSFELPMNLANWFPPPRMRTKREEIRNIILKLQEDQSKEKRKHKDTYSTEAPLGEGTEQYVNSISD
The class given is functional.

The target of data set [6] is T5, Sentrin-specific protease 8 (Homo sapiens, UniProt Q96LD8).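 Also: luminescence read-out of SENP8 inhibition, dose-response confirmation following an ultra-high-throughput screen.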
T5 sequence (Q96LD8 whole entry): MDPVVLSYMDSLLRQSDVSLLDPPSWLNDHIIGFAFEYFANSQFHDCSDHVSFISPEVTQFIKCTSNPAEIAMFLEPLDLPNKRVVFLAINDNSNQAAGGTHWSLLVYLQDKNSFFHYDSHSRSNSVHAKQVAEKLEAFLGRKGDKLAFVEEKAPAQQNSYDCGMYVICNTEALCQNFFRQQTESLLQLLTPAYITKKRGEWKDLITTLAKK
The data set is classed as functional.

A further data set relates to H4. Description: Luminescence Cell-Based Dose Response HTS to Identify Activators of 5'UTR Stem-Loop Driven Prion Protein mRNA Translation in H4 Neuroglioblastoma Cells. [Related pubchem assays: 1829 (Project Summary), 1814 (Primary HTS)]. The data set is classed as functional. The conditions noted are these: Homo sapiens.
The target in the next data set is T6, Protein skinhead-1 (Caenorhabditis elegans, UniProt P34707).
T6 sequence (P34707 whole entry): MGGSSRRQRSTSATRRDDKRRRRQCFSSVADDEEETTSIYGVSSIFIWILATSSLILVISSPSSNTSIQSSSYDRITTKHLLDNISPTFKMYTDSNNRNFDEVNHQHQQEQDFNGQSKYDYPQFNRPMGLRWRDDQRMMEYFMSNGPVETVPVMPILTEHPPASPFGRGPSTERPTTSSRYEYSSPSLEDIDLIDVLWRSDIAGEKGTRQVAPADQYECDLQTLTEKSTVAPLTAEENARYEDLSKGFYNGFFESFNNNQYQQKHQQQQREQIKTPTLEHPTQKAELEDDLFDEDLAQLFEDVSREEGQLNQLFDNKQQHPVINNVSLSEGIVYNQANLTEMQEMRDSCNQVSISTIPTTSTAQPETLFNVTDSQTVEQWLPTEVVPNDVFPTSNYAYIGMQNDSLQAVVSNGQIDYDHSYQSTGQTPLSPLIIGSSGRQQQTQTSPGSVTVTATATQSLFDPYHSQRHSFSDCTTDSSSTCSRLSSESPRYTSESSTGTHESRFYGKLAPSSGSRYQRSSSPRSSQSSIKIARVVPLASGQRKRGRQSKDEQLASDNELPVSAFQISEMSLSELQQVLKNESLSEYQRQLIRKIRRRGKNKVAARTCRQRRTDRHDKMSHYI
The data set is classed as functional.

The next data set addresses Cytochrome P450 2C9 (Homo sapiens, UniProt P11712).
In a further data set the target is Cytochrome P450 3A4 (Homo sapiens, UniProt P08684).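 Also: CYP3A4 tested as one member of a cytochrome P450 panel screen.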
Chain of Cytochrome P450 3A4 (P08684 whole entry): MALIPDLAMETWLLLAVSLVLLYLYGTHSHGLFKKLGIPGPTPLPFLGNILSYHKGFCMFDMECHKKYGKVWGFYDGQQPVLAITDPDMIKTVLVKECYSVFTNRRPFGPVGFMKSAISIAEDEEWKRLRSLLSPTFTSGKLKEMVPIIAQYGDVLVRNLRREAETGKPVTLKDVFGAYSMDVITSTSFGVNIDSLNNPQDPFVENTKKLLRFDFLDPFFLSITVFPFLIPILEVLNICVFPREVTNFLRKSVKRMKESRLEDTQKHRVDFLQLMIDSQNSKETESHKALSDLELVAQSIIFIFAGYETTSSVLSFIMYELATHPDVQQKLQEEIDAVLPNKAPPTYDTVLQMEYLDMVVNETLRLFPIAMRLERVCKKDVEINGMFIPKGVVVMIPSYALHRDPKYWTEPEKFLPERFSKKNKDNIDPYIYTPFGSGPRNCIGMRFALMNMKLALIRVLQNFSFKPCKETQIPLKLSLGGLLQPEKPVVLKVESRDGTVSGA
Data set [7] can be described thus: growth suppression of PTEN-null colon cells, dose response, cell-based, HCT116 PTEN knockout (AID 1047).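 Also: HCT116 colon tumor cells with PTEN knocked out; cells exposed to compound for 60 hours before readout; potency for loss of cell viability measured by luminescence.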 The data set is classed as functional.
Data set [8] is described as follows: growth suppression of beta-catenin-knockout colon cells, dose response, cell-based, HCT116, human colon tumor (AID 1045).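 Also: HCT116 colon tumor cells with beta catenin knocked out; cells exposed to compound for 60 hours.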 The class given is functional.
The target in the next data set is Cytochrome P450 2D6 (Homo sapiens, UniProt P10635).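 Also: CYP2D6 member of a cytochrome P450 panel assay.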
Chain of Cytochrome P450 2D6 (P10635 whole entry, the tested form may be a part): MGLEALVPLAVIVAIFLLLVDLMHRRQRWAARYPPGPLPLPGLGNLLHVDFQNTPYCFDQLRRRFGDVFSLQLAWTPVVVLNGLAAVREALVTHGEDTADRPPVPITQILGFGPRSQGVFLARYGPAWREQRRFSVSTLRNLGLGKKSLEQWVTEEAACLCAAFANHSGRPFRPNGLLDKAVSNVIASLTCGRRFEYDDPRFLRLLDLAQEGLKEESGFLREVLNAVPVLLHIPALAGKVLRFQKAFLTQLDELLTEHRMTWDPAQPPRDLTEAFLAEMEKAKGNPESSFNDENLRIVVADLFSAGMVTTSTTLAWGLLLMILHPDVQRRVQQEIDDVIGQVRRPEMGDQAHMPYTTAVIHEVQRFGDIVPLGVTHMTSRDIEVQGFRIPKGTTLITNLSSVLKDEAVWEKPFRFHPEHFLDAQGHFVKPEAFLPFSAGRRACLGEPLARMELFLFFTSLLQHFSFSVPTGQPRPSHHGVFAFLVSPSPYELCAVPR
The nature of data set [9]: ARNT/TACC3 interaction disruptors, potency, confirmation, biochemical, AlphaScreen, cherry-picked samples (AID 651703).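 Also: His-tagged ARNT PAS-B domain paired with GST-TACC3 E629A dimer coactivator fragment; potency of inhibitors that break up the complex and lower AlphaScreen signal.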 The class given is functional, Homo sapiens.

Chain of Cytochrome P450 2C9 (P11712 whole entry): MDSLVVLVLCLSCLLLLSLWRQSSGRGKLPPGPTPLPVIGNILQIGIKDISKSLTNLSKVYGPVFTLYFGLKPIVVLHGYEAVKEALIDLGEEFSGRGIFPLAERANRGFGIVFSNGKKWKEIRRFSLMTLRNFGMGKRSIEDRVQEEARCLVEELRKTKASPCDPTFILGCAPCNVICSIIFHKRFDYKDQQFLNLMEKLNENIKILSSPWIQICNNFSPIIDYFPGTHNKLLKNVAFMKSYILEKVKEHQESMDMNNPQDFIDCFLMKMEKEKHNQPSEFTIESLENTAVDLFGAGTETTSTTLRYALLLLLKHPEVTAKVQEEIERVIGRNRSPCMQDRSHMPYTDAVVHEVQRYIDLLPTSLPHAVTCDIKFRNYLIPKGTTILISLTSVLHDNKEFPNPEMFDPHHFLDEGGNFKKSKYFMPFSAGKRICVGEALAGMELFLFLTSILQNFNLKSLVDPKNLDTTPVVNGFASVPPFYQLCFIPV

For the compound `Cc1ccc(/C=C/C(=O)c2c(C)nc3ccccn23)cc1`, the IC50 in the data set on Vero [1] is > 25 µM (active). In addition, in the data set on Vero [2], the CC50 is 17.6 µM (active).

`COc1ccc(N2CCN(C(=O)C3CCN(S(=O)(=O)c4ccc(C)cc4)CC3)CC2)cc1`: the IC50 (with HEK293; in data set [3]) was > 67.5 µM (inactive) throughout.

With `COC(=O)c1sc(-c2ccc(Cl)cc2)cc1N`, the IC50 was 17.7 µM (active) on Caspase-3, 2.96 µM (active) in data set [4], 4.35 µM (active) in data set [5] and 67.1 µM (active) in data set [6].

For `Cc1ccccc1C(=O)Nc1ccc2c(c1)CCCN2C(=O)c1cccs1`, the IC50 in the data set with Vero [1] is 7.77 µM (active). For the same compound, the CC50 in the data set on Vero [2] is > 25 µM (active).

For `O=[N+]([O-])c1ccc2nc(-c3ccc(Cl)cc3)n(OCc3ccccc3)c2c1`, in the data set on H4, the EC50 is 0.973 µM (active). Besides, the IC50 at Protein skinhead-1 was > 100 µM (inactive). For the same compound, the AC50 was 22.4 µM (inconclusive) on Cytochrome P450 2C9 and “inconclusive” on Cytochrome P450 3A4.

For `CC(C)N1C/C(=C/c2ccsc2)C(=O)/C(=C/c2ccsc2)C1`, the EC50 in [7] was 1.39 µM (active); in data set [8] it was 1.34 µM (active). The IC50 in the data set on Vero [1] is > 25 µM (active). Moreover, the CC50 in the data set with Vero [2] is 5.33 µM (active).

Turning to `C=CCn1c(SCC(=O)c2cccs2)nc2sc(C)c(C)c2c1=O`, the IC50 with Vero [1] was 24.8 µM (active).

`Clc1ccccc1-c1cc(NCc2ccccc2)ncn1`: the results for the concentration at half-maximal activity (AC50) at Cytochrome P450 2D6 and on Cytochrome P450 3A4 were 20 µM (inconclusive) and “inconclusive”, respectively.

Turning to `CN(Cc1ccccc1Cl)C(=O)CCNC(=O)c1ccco1`, the IC50 (in the data set with HEK293; in data set [3]) was > 67.5 µM (inactive) throughout.

`CCC[C@H]1CN(c2ccccc2)C(=O)[C@@H]1CC(=O)Nc1ccc(Br)cc1`: the IC50 (with HEK293; in data set [3]) was > 67.5 µM (inactive) each time.

With `O=C(Nc1ccc2c(c1)[C@@H]1C[C@H](CC(=O)N3CCc4ccccc4C3)O[C@@H](CO)[C@@H]1O2)c1ccc2c(c1)OCO2`, the half-maximal activity concentration (AC50) in data set [9] is 134 µM (active).

On to `CCCSC(=N)N/N=C/c1cc(C)ccc1O`, for which the EC50 in [7] is 32.5 µM (active); in data set [8], 30 µM (active). The IC50 is 46.3 µM (active) at Caspase-3, 11.4 µM (active) in data set [4], 93.5 µM (active) in [5] and > 100 µM (inactive) in data set [6].

For `C(=N\Nc1nc(-c2ccccc2)cs1)/c1cccs1`, the IC50 was 29.8 µM (active) at Caspase-3, 4.19 µM (active) in data set [4], 12.8 µM (active) in data set [5] and 31.6 µM (active) in data set [6].

(Values after ChEMBL document CHEMBL1201862, “PubChem BioAssay data set” (2004).)
